Columns and labels:
KRas WT = KRas WT (Homo sapiens, UniProt P01116); assay: biochemical;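 also: binding to KRas read as TR-FRET displacement after a one-hour room-temperature incubation, IC50 derived from percent-of-control values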
Method: (§1) The ability of a compound to bind to KRas was measured using a TR-FRET displacement assay. […] After a 60-minute incubation at room temperature, the reaction was measured using a BMG LABTECH CLARIO star Plus via TR-FRET. […] The POC values were fit to a 4-parameter IC50 equation and the IC50 value reported.

KRas Q61H = biological target: T1, KRas Q61H (Homo sapiens, UniProt P01116, Q61H); assay: KRas binding assay (TR-FRET displacement);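 also: TR-FRET signal read after one hour at room temperature, IC50 derived by four-parameter fitting of percent-of-control values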
T1 construct: Biotinylated KRas (corresponding to amino acids 1-169, produced at Accelegan Inc.); biotin (biotinylated); purchased Accelegan Inc
T1 sequence (P01116 1-169 isoform P01116-2 Q61H): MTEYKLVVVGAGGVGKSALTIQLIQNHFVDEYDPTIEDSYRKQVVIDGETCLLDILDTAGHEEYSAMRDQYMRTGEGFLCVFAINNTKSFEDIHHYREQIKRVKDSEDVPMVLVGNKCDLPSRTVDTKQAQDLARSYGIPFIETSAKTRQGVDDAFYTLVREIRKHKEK
Method: as §1

KRas G12V = KRas G12V (Homo sapiens, UniProt P01116, G12V); assay: biochemical;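 also: KRas binding measured by TR-FRET displacement at room temperature, IC50 fitted from percent of control values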
Sequence of KRas G12V (P01116 1-169 isoform P01116-2 G12V): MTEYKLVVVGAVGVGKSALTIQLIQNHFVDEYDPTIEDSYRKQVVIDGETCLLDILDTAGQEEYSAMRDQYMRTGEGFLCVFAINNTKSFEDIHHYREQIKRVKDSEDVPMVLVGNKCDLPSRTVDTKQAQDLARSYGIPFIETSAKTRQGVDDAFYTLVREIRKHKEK
Method: as §1

KRas G12R = KRas G12R (Homo sapiens, UniProt P01116, G12R); assay: biochemical;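 also: TR-FRET displacement assay of compound binding to KRas, read after one hour at room temperature, potency from a four-parameter fit of percent-of-control values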
Sequence of KRas G12R (P01116 1-169 isoform P01116-2 G12R): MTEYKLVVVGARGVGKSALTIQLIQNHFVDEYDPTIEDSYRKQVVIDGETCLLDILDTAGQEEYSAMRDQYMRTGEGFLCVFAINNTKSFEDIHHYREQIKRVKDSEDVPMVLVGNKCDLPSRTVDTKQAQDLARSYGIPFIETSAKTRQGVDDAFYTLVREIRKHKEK
Method: as §1

KRas G13D = biological target: T2, KRas G13D (Homo sapiens, UniProt P01116, G13D); assay: KRas binding assay (TR-FRET displacement);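 also: One-hour room temperature incubation before TR-FRET reading, IC50 from a four-parameter curve fit to percent-of-control data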
T2 construct: Biotinylated KRas (corresponding to amino acids 1-169, produced at Accelegan Inc.); biotin (biotinylated); purchased Accelegan Inc
T2 sequence (P01116 1-169 isoform P01116-2 G13D): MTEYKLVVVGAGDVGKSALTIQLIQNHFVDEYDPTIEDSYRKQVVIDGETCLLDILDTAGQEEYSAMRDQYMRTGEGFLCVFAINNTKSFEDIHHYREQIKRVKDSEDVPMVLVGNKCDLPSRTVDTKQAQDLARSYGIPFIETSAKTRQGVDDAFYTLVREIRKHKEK
Method: as §1

KRas G12A = KRas G12A (Homo sapiens, UniProt P01116, G12A); assay: biochemical;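 also: binding to KRas measured by TR-FRET displacement after one hour at room temperature, IC50 from a four-parameter fit of percent-of-control values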
Sequence of KRas G12A (P01116 1-169 isoform P01116-2 G12A): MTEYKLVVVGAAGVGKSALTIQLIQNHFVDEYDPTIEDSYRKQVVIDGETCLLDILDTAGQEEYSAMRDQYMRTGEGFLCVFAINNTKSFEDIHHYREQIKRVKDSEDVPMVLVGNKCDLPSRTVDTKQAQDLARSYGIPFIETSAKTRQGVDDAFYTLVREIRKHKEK
Method: as §1

KRas G12C = KRas G12C (Homo sapiens, UniProt P01116, G12C); assay: biochemical;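 also: binding to KRas assessed by TR-FRET displacement after one hour incubation at room temperature, potency fitted from percent-of-control values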
Sequence of KRas G12C (P01116 1-169 isoform P01116-2 G12C): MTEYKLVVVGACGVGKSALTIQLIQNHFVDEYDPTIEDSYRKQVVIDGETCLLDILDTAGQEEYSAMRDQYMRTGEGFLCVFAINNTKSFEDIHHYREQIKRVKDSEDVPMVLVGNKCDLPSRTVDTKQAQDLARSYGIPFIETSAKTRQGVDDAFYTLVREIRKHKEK
Method: as §1

KRas G12S = KRas G12S (Homo sapiens, UniProt P01116, G12S); assay: biochemical;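 also: TR-FRET displacement binding to KRas, read after one hour incubation at room temperature, IC50 from four-parameter fit of percent of control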
Sequence of KRas G12S (P01116 1-169 isoform P01116-2 G12S): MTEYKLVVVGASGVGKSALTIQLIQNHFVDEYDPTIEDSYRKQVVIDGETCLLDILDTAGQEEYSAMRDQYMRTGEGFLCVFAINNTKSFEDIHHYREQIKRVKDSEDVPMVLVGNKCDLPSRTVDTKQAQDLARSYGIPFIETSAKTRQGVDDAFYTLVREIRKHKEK
Method: as §1

KRas G12D = KRas G12D (Homo sapiens, UniProt P01116, G12D); assay: biochemical;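 also: TR-FRET displacement binding assay on KRas, read after a one-hour incubation at room temperature, IC50 fitted from percent-of-control values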
Sequence of KRas G12D (P01116 1-169 isoform P01116-2 G12D): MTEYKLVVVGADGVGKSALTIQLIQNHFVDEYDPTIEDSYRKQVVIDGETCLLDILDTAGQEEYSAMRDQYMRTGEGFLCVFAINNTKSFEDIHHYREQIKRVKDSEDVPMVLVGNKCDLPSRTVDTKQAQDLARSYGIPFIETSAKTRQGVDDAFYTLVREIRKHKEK
Method: as §1

Sequence of KRas WT (P01116 1-169 isoform P01116-2): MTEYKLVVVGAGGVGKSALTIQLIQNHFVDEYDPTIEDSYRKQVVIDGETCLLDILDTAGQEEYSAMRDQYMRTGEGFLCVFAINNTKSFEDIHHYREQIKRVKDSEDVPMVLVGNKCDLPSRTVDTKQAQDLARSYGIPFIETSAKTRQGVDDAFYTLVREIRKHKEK

Row | Compound | IC50 (KRas WT) | IC50 (KRas Q61H) | IC50 (KRas G12V) | IC50 (KRas G12R) | IC50 (KRas G13D) | IC50 (KRas G12A) | IC50 (KRas G12C) | IC50 (KRas G12S) | IC50 (KRas G12D)
1 | Fc1c(-c2cccc3cccc(F)c23)ncc2c(NCc3cn[nH]c3)nc(OCC34CCCN3CCC4)nc12 [Example 93, N-((1H-pyrazol-4-yl)methyl)-8-fluoro-7-(8-fluoronaphthalen-1-yl)-2-((hexahydro-1H-pyrrolizin-7a-yl)methoxy)pyrido[4,3-d]pyrimidin-4-amine] | 14.9 µM | 21800 nM | 2.93 µM | 3.39 µM | 20400 nM | 7.84 µM | 4.05 µM | 10.2 µM | 83.6 µM
2 | Fc1c(-c2cccc3cccc(F)c23)ncc2c(NCc3c[nH]c4ncccc34)nc(OCC34CCCN3CCC4)nc12 [Example 94, N-((1H-pyrrolo[2,3-b]pyridin-3-yl)methyl)-8-fluoro-7-(8-fluoronaphthalen-1-yl)-2-((tetrahydro-1H-pyrrolizin-7a(5H)-yl)methoxy)pyrido[4,3-d]pyrimidin-4-amine] | 1.39 µM | 1850 nM | 0.146 µM | 0.115 µM | 1250 nM | 0.24 µM | 0.183 µM | 0.368 µM | 4.51 µM
3 | O=S1(=O)CC(Nc2nc(OCC34CCCN3CCC4)nc3c(F)c(-c4cccc5cccc(F)c45)ncc23)C1 [Example 95, 3-((8-fluoro-7-(8-fluoronaphthalen-1-yl)-2-((hexahydro-1H-pyrrolizin-7a-yl)methoxy)pyrido[4,3-d]pyrimidin-4-yl)amino)thietane1,1-dioxide] | 3.99 µM | 10300 nM | 4.99 µM | 3.06 µM | 7180 nM | 5 µM | 3.62 µM | 4.12 µM | 55 µM
4 | O=c1ccc(CNc2nc(OCC34CCCN3CCC4)nc3c(F)c(-c4cccc5cccc(F)c45)ncc23)c[nH]1 [Example 96, 5-(((8-fluoro-7-(8-fluoronaphthalen-1-yl)-2-((hexahydro-1H-pyrrolizin-7a-yl)methoxy)pyrido[4,3-d]pyrimidin-4-yl)amino)methyl)pyridin-2 (1H)-one] | 5.71 µM | 22100 nM | 1.94 µM | 3.19 µM | 10700 nM | 2.5 µM | 1.95 µM | 3.23 µM | 62.9 µM
5 | O=C1CC2(CCCN(c3nc(OCC45CCCN4CCC5)nc4c(F)c(-c5cccc6cccc(F)c56)ncc34)C2)N1 (stereo not drawn) [Example 97, 6-(8-fluoro-7-(8-fluoronaphthalen-1-yl)-2-((hexahydro-1H-pyrrolizin-7a-yl)methoxy)pyrido[4,3-d]pyrimidin-4-yl)-1,6-diazaspiro[3.5]nonan-2-one] | 0.333 µM | 412 nM | 0.189 µM | 0.348 µM | 297 nM | 0.227 µM | 0.192 µM | 0.272 µM | 0.175 µM
6 | O=C1NCC12CCCN(c1nc(OCC34CCCN3CCC4)nc3c(F)c(-c4cccc5cccc(F)c45)ncc13)C2 (stereo not drawn) [Example 98, 6-(8-fluoro-7-(8-fluoronaphthalen-1-yl)-2-((tetrahydro-1H-pyrrolizin-7a(5H)-yl)methoxy)pyrido[4,3-d]pyrimidin-4-yl)-2,6-diazaspiro[3.5]nonan-1-one] | 3.36 µM | 4770 nM | 3.01 µM | 6.42 µM | 3210 nM | 2.91 µM | 2.84 µM | 4.01 µM | 1.89 µM
7 | Cn1ncc2ccc(Nc3nc(OCC45CCCN4CCC5)nc4c(F)c(-c5cccc6cccc(F)c56)ncc34)cc21 [Example 99, 8-fluoro-7-(8-fluoronaphthalen-1-yl)-2-((hexahydro-1H-pyrrolizin-7a-yl)methoxy)-N-(1-methyl-1H-indazol-6-yl)pyrido[4,3-d]pyrimidin-4-amine] | 32.4 µM | 98500 nM | 3.97 µM | 16.7 µM | 59800 nM | 13.6 µM | 8.33 µM | 21.7 µM | ≥ 100 µM
8 | Fc1c(-c2cccc3cccc(F)c23)ncc2c(Nc3ccc4[nH]ncc4c3)nc(OCC34CCCN3CCC4)nc12 [Example 100, 8-fluoro-7-(8-fluoronaphthalen-1-yl)-2-((hexahydro-1H-pyrrolizin-7a-yl)methoxy)-N-(1H-indazol-5-yl)pyrido[4,3-d]pyrimidin-4-amine] | 40.3 µM | 42000 nM | 17.3 µM | ≥ 100 µM | 49300 nM | 50.4 µM | 39.9 µM | 28.8 µM | 11.8 µM
9 | Fc1c(-c2cccc3cccc(Cl)c23)ncc2c(N3CC(n4ccnc4)C3)nc(OCC34CCCN3CCC4)nc12 [Example 101, 4-(3-(1H-imidazol-1-yl)azetidin-1-yl)-7-(8-chloronaphthalen-1-yl)-8-fluoro-2-((tetrahydro-1H-pyrrolizin-7a(5H)-yl)methoxy)pyrido[4,3-d]pyrimidine] | 3.03 µM | 2580 nM | 0.966 µM | 0.615 µM | 4230 nM | 0.994 µM | 0.679 µM | 1.34 µM | 15.3 µM
10 | O=C1CC(CNc2nc(OCC34CCCN3CCC4)nc3c(F)c(-c4cccc5cccc(Cl)c45)ncc23)CN1 (stereo not drawn) [Example 102, 4-(((7-(8-chloronaphthalen-1-yl)-8-fluoro-2-((tetrahydro-1H-pyrrolizin-7a(5H)-yl)methoxy)pyrido[4,3-d]pyrimidin-4-yl)amino)methyl)pyrrolidin-2-one] | 1.17 µM | 1180 nM | 0.365 µM | 0.479 µM | 769 nM | 0.634 µM | 0.399 µM | 0.191 µM | 2.29 µM
11 | Oc1nc(CCCNc2nc(OCC34CCCN3CCC4)nc3c(F)c(-c4cccc5cccc(Cl)c45)ncc23)n[nH]1 [Example 103, 3-(3-((7-(8-chloronaphthalen-1-yl)-8-fluoro-2-((tetrahydro-1H-pyrrolizin-7a(5H)-yl)methoxy)pyrido[4,3-d]pyrimidin-4-yl)amino)propyl)-1H-1,2,4-triazol-5-ol] | 3.95 µM | 4940 nM | 1.83 µM | 1.5 µM | 4210 nM | 2.09 µM | 1.89 µM | 2.45 µM | 15.5 µM
12 | Fc1c(-c2cccc3cccc(Cl)c23)ncc2c(N3CCCC3c3cn[nH]c3)nc(OCC34CCCN3CCC4)nc12 (stereo not drawn) [Example 104, 4-(2-(1H-pyrazol-4-yl)pyrrolidin-1-yl)-7-(8-chloronaphthalen-1-yl)-8-fluoro-2-((tetrahydro-1H-pyrrolizin-7a(5H)-yl)methoxy)pyrido[4,3-d]pyrimidine] | 2.33 µM | 3210 nM | 2.87 µM | 2.82 µM | 3640 nM | 1.74 µM | 2.3 µM | 2.02 µM | 7.61 µM
13 | OCc1n[nH]c(CNc2nc(OCC34CCCN3CCC4)nc3c(F)c(-c4cccc5cccc(Cl)c45)ncc23)n1 [Example 105, (5-(((7-(8-chloronaphthalen-1-yl)-8-fluoro-2-((tetrahydro-1H-pyrrolizin-7a(5H)-yl)methoxy)pyrido[4,3-d]pyrimidin-4-yl)amino)methyl)-1H-1,2,4-triazol-3-yl)methanol] | 8.01 µM | 13800 nM | 2.81 µM | 5.92 µM | 13800 nM | 6.7 µM | 3.51 µM | 5.75 µM | 9.05 µM
